Patent publication US20070203244A1, “INHIBITORS OF MEMBRANE TYPE-1 MATRIX METALLOPROTEINASE FOR THE TREATMENT OF INSULIN-DEPENDENT DIABETES MELLITUS” (priority 2006, published 2007)

How the values were obtained:
[1] = cited from earlier work
[2] = target: T1, MT1-MMP (Mus musculus, UniProt P53690); assay: MT1-MMP-dependent MMP-2 activation in adherent IS-CD8+ cells, gelatin zymography; type: cell-based, NOD mouse; set-up: inhibition of MMP-2 activation: dose or concentration left out as unconfirmed
T1 construct: Endogenous MT1-MMP is latent in non-adherent IS-CD8^+ cells; endogenous in cells; host or cells: IS-CD8+ T cells (TGNFC8 clone, NOD mouse), adherent to gelatin
Protocol: MT1-MMP-dependent MMP-2 Activation and Gelatin Zymography—IS-CD8^+ cells (1×10^6) were either allowed to adhere for 4 h in serum-free unsupplemented Click's medium to plastic coated with 2% gelatin or kept in solution. Under these experimental conditions, the vast majority of cells became attached to gelatin. In 4 h, media samples (30 μl each) were withdrawn and analyzed by gelatin zymography (Deryugina, E. I., et al. (2001)) to identify the proteolytic activity and the activation status of MMP-2 naturally synthesized by IS-CD8^+ cells. Where indicated, cells were supplemented with external purified pro-MMP-2 (20 ng). Pro-MMP-2 was isolated from a conditioned medium of p2AHT2A72 cells derived from an HT1080 fibrosarcoma cell line sequentially transfected with the E1A and MMP-2 cDNAs (Strongin, A. Y., et al. (1995)).
MT1-MMP-dependent MMP-2 activation and gelatin zymography—IS-CD8^+ cells (1×10^6) were either allowed to adhere for 4 h in serum-free unsupplemented Click's medium to the plastic coated with 2% gelatin or kept in solution. In 18 h, media samples (30 μl each) were withdrawn and analyzed by gelatin zymography (Deryugina, E. I., et al. (2001)) to identify the proteolytic activity and the activation status of MMP-2 naturally synthesized by IS-CD8^+ cells. […] Pro-MMP-2 was isolated from a conditioned medium of p2AHT2A72 cells derived from an HT1080 fibrosarcoma cell line sequentially transfected with the E1A and MMP-2 cDNAs (Strongin, A. Y., et al. (1995)).

[3] = test system: NOD mice; assay: Adoptively transferred diabetes in NOD mice (IS-CD8+ cells); type: in vivo; conditions: Example 3: i.p. 30 min prior to cells, then every other day; inhibitor diluted to 4 mg/ml
Protocol: IS-CD8^+ cells were labeled with DiI and then injected in NOD mice. In 24 h, the labeled cells with their intra-islet location were counted in the cryostat sections of the entire pancreas. […] IS-CD8^+ cells were injected in NOD mice. […] PBS containing […] DMSO was used as a vehicle control. The onset of diabetes was monitored daily by measuring urine glucose levels with the Diastix reagent strips. Mice with urine glucose levels of ≧2000 mg/dl for 3 consecutive days were considered diabetic. * and **, p=0.02 and p=0.015 by Fisher's test, respectively.
Mice were monitored for 21 days. […] The onset of diabetes was identified by assessing urine glucose levels with Diastix® strips (Bayer). Mice with urine glucose levels of >2000 mg/dl for 3 consecutive days were considered diabetic. […] The level of glucose in the urine closely follows that in the blood (Traisman, H. S., and Greenwood, R. D. (1973)). The measurement of glucose in urine is a widely accepted method to follow the development of diabetes in NOD mice (Pomerleau, D. P., et al. (2005)).

[4] = test system: IS-CD8+ T cells; assay: Homing of DiI-labeled IS-CD8+ T cells into the pancreatic islets of NOD mice; type: in vivo; conditions: Example 3: inhibitor i.p. before cells; 24 h; SB-3CT and EGCG at much higher concentrations than AG3340
Protocol: Fluorescent Tracing and Morphometric Analysis—For trafficking studies, IS-CD8^+ T cells were incubated at 1×10^7 cells/ml for 30 min at 37° C. in the dark in complete Click's medium containing 5% fetal calf serum and 0.0075 mg/ml of the fluorescent dye 1,1′-didodecyl-3,3,3′,3′-tetramethylindocarbocyanine perchlorate (DiI; Molecular Probes, Eugene, Oreg.). After incubation, the cells were washed three times with phosphatebuffered saline to remove excess DiI. Labeled IS-CD8^+ cells (1×10^7 cells) were injected intravenously in 0.2 ml of phosphate-buffered saline into irradiated (725 rads, 24 h in advance) NOD mice. Mice were sacrificed 24 h after injection of DiI-labeled cells. The spleen and the pancreata were excised and fixed in 0.1 M periodate-lysine-paraformaldehyde phosphate buffer. The organs were next sucrose-saturated, freeze-molded in OCT compound (Sakura Finetek Inc., Torrance, Calif.), and freeze-sectioned. 7-μm-thick cryostat sections of the entire pancreas were prepared at 60-μm intervals using a Leica CM1900 cryotom. Distribution of DiI-labeled CD8^+ cells within the islets was examined using a fluorescent microscope. At least 100 individual islets per mouse (4-5 mice/experimental group) were examined. The characteristic morphology of the islets is easily identified on the cryosections. DiI-labeled cells were counted within the area relevant to each individual islet (see FIG. 3 for a representative image; the islet-relevant area is depicted by the solid white line, and the islet boundaries are shown by the white dotted line). The position of each IS-CD8^+ labeled cell was determined relative to the islet boundary. The labeled cells localized within the islet boundary were considered to be “inside,” whereas the labeled cells adjacent to the islet but outside of the islet boundary were considered to be “at the entrance.” This method has been described in substantial detail (Savinov, A. Y., et al. (2003), and Savinov, A. Y., et al. (2001), which are herein incorporated by reference in their entirety for their teaching of these methods).
Fluorescent tracing and morphometric analysis—For trafficking studies, IS-CD8^+ T cells were incubated at 1×10^7 cells/ml for 30 min at 37° C. in the dark in the complete Click's medium containing 5% FCS and 0.0075 mg/ml of fluorescent dye 1,1′-didodecyl-3,3,3′,3′-tetramethylindocarbocyanine perchlorate (DiI; Molecular Probes). After incubation, the cells were washed three times with PBS to remove excess DiI. Labeled IS-CD8^+ cells (1×10^7 cells) were intravenously injected in 0.2 ml of PBS into irradiated (725 Rad, 24 h in advance) NOD mice. Mice were sacrificed 24 h after injection of DiI-labeled cells. […] In 24 h, the spleen and the pancreata were excised and fixed in 0.1 M periodate-lysine-paraformaldehyde phosphate buffer. The organs were next sucrose-saturated, freeze-molded in OCT compound (Sakura Finetek Inc.) and freeze-sectioned. 7-μm-thick cryostat sections of the entire pancreas were prepared at the 60 μm intervals using a Leica CM1900 cryotom. Distribution of DiI-labeled CD8^+ cells within the islets was examined using a fluorescent microscope. At least 100 individual islets per mouse, 4-5 mice per each experimental group, were examined. The characteristic morphology of the islets is easily identified on the cryosections. DiI-labeled cells were counted within the area relevant to each individual islet. The position of each IS-CD8^+ labeled cell was determined relative to the islet boundary. […]

[5] = test system: CD44 shedding in IS-CD8+ cells; assay: CD44 shedding in adherent IS-CD8+ cells, Western blotting; type: cell-based, NOD mouse
Protocol: Western Blotting—IS-CD8^+ cells were surface biotinylated for 1 h at 4° C. with 0.1 mg/ml sulfo-NHS-LC-biotin (Pierce, Rockford, Ill.). Following washes to remove biotin, cells were co-incubated for 2 h with MT1-MMP-CAT in serum-free, unsupplemented Click's medium. The cells were then lysed with 50 mM N-octyl-β-D-glucopyranoside in phosphate-buffered saline supplemented with 1 mM CaCl2, 1 mM MgCl2, and protease inhibitor mixture containing phenylmethylsulfonyl fluoride (1 mM) and aprotinin, pepstatin, and leupeptin (1 μg/ml each). Biotin-labeled CD44 was captured from the cell lysate and from the medium aliquots on streptavidin-agarose beads. The captured samples were examined by Western blotting with the CD44 (clone IM7.8.1) antibody to determine the released, soluble, CD44 ectodomain in the medium samples and the residual, membrane-anchored, cellular CD44 in the cell lysates.
Western blotting—IS-CD8^+ cells were surface biotinylated for 1 hr at 4° C. with 0.1 mg/ml of sulfo-NES-LC-biotin (Pierce). Following washes to remove biotin, the labeled cells were allowed to adhere in serum-free medium to plastic coated with 2% type I collagen/gelatin for 4 h or were kept in suspension. Under these experimental conditions, the vast majority of the cells became attached to gelatin. […] The cells were then lysed with 50 mM N-octyl-β-D-glucopyranoside in PBS supplemented with 1 mM CaCl2, 1 mM MgCl2, and protease inhibitor cocktail containing phenylmethylsulfonyl fluoride (1 mM) and aprotinin, pepstatin, and leupeptin (1 μg/ml each). Biotin-labeled CD44 was captured from the cell lysate and from the medium aliquots on streptavidine-Agarose beads. The captured samples were examined by Western blotting with the CD44 (clone IM7.8.1) antibody to determine the released, soluble, CD44 ectodomain in the medium samples and the residual, membrane-anchored, cellular CD44 in the cell lysates.

[6] = target: T2, MMP-2 (Homo sapiens, UniProt P08253); conditions: preclinical studies; cited from earlier work
T2 sequence (P08253 110-660): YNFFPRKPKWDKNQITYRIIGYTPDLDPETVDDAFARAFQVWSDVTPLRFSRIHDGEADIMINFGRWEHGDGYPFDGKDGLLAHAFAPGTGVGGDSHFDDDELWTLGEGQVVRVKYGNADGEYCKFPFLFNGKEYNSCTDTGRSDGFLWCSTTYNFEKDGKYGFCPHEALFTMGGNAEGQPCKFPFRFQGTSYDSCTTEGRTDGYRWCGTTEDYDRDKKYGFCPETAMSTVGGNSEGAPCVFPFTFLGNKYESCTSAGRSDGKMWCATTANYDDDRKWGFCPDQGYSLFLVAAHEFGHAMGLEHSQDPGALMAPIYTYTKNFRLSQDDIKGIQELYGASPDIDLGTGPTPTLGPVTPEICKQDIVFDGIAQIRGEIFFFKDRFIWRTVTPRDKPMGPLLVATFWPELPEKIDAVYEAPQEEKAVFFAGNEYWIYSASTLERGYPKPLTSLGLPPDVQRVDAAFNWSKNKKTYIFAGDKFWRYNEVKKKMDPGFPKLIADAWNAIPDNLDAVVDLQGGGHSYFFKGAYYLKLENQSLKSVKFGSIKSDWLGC

[7] = target: MMP-9 (Homo sapiens, UniProt P14780); conditions: preclinical studies; cited from earlier work
[8] = human TIMP proteins; cited from earlier work

MMP-9, sequence (P14780 94-707, species assumed): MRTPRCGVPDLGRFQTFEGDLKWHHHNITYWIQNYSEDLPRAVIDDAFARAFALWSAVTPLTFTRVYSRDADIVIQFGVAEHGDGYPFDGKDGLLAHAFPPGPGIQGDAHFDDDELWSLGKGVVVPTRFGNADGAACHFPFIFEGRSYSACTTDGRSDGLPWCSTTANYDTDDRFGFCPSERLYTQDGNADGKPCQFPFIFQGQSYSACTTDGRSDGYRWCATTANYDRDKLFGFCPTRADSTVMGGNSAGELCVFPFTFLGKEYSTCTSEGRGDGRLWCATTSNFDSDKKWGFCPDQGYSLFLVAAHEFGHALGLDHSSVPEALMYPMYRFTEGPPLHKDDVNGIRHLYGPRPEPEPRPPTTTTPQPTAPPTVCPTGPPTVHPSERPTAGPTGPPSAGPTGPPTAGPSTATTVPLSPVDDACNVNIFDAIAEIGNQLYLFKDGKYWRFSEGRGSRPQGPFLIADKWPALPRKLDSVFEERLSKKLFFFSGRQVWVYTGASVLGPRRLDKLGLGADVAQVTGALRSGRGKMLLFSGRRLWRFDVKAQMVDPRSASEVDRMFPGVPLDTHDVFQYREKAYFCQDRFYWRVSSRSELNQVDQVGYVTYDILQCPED

## COc1ccc(S(=O)(=O)N(Cc2cccnc2)[C@@H](C(=O)NO)C(C)C)cc1 [CGS-27023A]
[1]; clinically tolerable doses
  plasma concentrations relative to in vitro IC50s for MMP-2,-3 and -9: severalfold greater
  time for which plasma concentrations above the in vitro IC50s for MMP-2,-3 and -9 were sustained after dosing: > 10 h
[1]; oral, continuous dosing, 150 to 600 mg in divided doses
  dose at which major toxic effects (cutaneous and musculoskeletal toxicity) were encountered: exceeding 300 mg twice a day

## O=C(O[C@@H]1Cc2c(O)cc(O)cc2O[C@@H]1c1cc(O)c(O)c(O)c1)c1cc(O)c(O)c(O)c1 [EGCG, (−)-epigallocatechin 3-gallate]
[2]; Example 3: EGCG
  inhibition of MMP-2 activation: partial inhibition
[3]
  delay of the transferred diabetes onset: no delay
[4]
  homing of IS-CD8+ cells inside the islets: did not affect
[5]; Example 3: EGCG 500 mM
  effect on CD44 proteolysis: without any significant effect

## O=S(=O)(CC1CS1)c1ccc(Oc2ccccc2)cc1 (stereo not drawn) [SB-3CT]
[2]; Example 3: inhibitors added for 18 h
  activation of MMP-2 in adherent cells: no effect
[3]
  delay of the transferred diabetes onset: no delay
[4]
  homing of IS-CD8+ cells inside the islets: did not affect
[5]; Example 3
  shedding of CD44 in adherent cells: no effect

## CNC(=O)[C@@H](NC(=O)[C@H](CC(C)C)NC(=O)[C@@H](S)CCN1C(=O)N(C)C(C)(C)C1=O)C(C)(C)C [BMS-275291]
[6]
  inhibitory activity against MMP-2: potent inhibitory activity
[7]
  inhibitory activity against MMP-9: potent inhibitory activity

## TIMP-1: native tissue inhibitor of MMP; a poor inhibitor of MT1-MMP
[8]
  isoelectric point: 8.00
[2]; Example 2: AG3340 50 μM, TIMP-1 and TIMP-2 100 ng/ml, 18 h
  activation of MMP-2 in adherent cells: no effect
[5]; Example 2: AG3340 50 μM, TIMP-1 and TIMP-2 100 ng/ml
  shedding of CD44 in adherent cells: minor but noticeable inhibition

B1: TIMP-4: native tissue inhibitor of MMP, 22 kDa, SEQ ID NO:6 (protein, UniProt Q99727 30-224, looked up)
Metalloproteinase inhibitor 4: CSCAPAHPQQHICHSALVIRAKISSEKVVPASADPADTEKMLRYEIKQIKMFKGFEKVKDVQYIYTPFDSSLCGVKLEANSQKQYLLTGQVLSDGKVFIHLCNYIEPWEDLSLVQRESLNHHYHLNCGCQITTCYTVPCTISAPNECLWTDWLLERKLYGYQAQHYVCMKHVDGTCSWYRGHLPLRKEFVDIVQP
[8]
  isoelectric point: 7.34

B2: TIMP-3: native tissue inhibitor of MMP, SEQ ID NO:4 (protein)
chain: MTPWLGLIVLLGSWSLGDWGAEACTCSPSHPQDAFCNSDIVIRAKVVGKKLVKEGPFGTLVYTIKQMKMYRGFTKMPHVQYIHTEASESLCGLKLEVNKYQYLLTGRVYDGKMYTGLCNFVERWDQLTLSQRKGLNYRYHLGCNCKIKSCYYLPCFVTSKNECLWTDMLSNFGYPGYQSKHYACIRQKGGYCSWYRGWAPPDKSIINATDP
[8]
  isoelectric point: 9.04
